In brackets after ≈: the same amount, converted by molar mass.
Legend:
[1] = system: Escherichia coli; test: Antibacterial activity against Escherichia coli CICC 10389 assessed as bacterial growth inhibition incubated for 18 to 24 hrs by NCCLS based assay; type: functional; settings: time 18-24 hrs
[2] = system: Staphylococcus aureus; test: Antibacterial activity against methicillin-resistant Staphylococcus aureus BNCC 337371 assessed as bacterial growth inhibition incubated for 18 to 24 hrs by NCCLS based assay; type: functional; settings: time 18-24 hrs
[3] = system: Enterococcus faecalis; test: Antibacterial activity against Enterococcus faecalis assessed as bacterial growth inhibition incubated for 18 to 24 hrs by NCCLS based assay; type: functional; settings: time 18-24 hrs
[4] = system: Streptococcus agalactiae; test: Antibacterial activity against Streptococcus agalactiae assessed as bacterial growth inhibition incubated for 18 to 24 hrs by NCCLS based assay; type: functional; settings: time 18-24 hrs
[5] = system: Staphylococcus epidermidis; test: Antibacterial activity against methicillin-resistant Staphylococcus epidermidis ATCC 51625 assessed as bacterial growth inhibition incubated for 18 to 24 hrs by NCCLS based assay; type: functional; settings: time 18-24 hrs
[6] = system: Staphylococcus aureus; test: Antibacterial activity against Staphylococcus aureus ATCC 25923 assessed as bacterial growth inhibition incubated for 18 to 24 hrs by NCCLS based assay; type: functional; settings: time 18-24 hrs
[7] = system: Pasteurella multocida; test: Antibacterial activity against Pasteurella multocida CVCC 1659 assessed as bacterial growth inhibition incubated for 18 to 24 hrs by NCCLS based assay; type: functional; settings: time 18-24 hrs
[8] = system: Staphylococcus aureus; test: Bactericidal activity against methicillin-resistant Staphylococcus aureus ATCC 29213 incubated for 24 hrs by time kill assay; type: functional, organism-based
[9] = system: Staphylococcus aureus; test: Bactericidal activity against Staphylococcus aureus incubated for 24 hrs by time kill assay; type: functional, organism-based
[10] = system: Staphylococcus aureus; test: Antibacterial activity against Staphylococcus aureus assessed as reduction in bacterial count at 6 times MIC incubated for 24 hrs by time kill assay; type: functional
[11] = system: Staphylococcus aureus; test: Antibacterial activity against methicillin-resistant Staphylococcus aureus ATCC 29213 assessed as reduction in bacterial count at 6 times MIC incubated for 24 hrs by time kill assay; type: functional

Row | Structure (SMILES) | MIC [1] | MIC [2] | MIC [3] | MIC [4] | MIC [5] | MIC [6] | MIC [7] | Activity [8] | Activity [9] | log(activity) [10] | log(activity) [11]
1 | C=C[C@]1(C)C[C@@H](OC(=O)CSc2ncnc(N3CCNCC3)n2)[C@]2(C)[C@H](C)CC[C@]3(CCC(=O)[C@H]32)[C@@H](C)[C@@H]1O | ≥ 64 µg/mL | 2 µg/mL (≈ 3.59 µM) | ≥ 64 µg/mL | 0.25 µg/mL (≈ 0.448 µM) | 2 µg/mL (≈ 3.59 µM) | 1 µg/mL (≈ 1.79 µM) | ≥ 64 µg/mL | – | – | – | –
2 | C=C[C@]1(C)C[C@@H](OC(=O)CSc2ncnc(OCC)n2)[C@]2(C)[C@H](C)CC[C@]3(CCC(=O)[C@H]32)[C@@H](C)[C@@H]1O | ≥ 64 µg/mL | 0.125 µg/mL (≈ 0.241 µM) | 32 µg/mL (≈ 61.8 µM) | 0.25 µg/mL (≈ 0.483 µM) | 0.25 µg/mL (≈ 0.483 µM) | 0.125 µg/mL (≈ 0.241 µM) | ≥ 64 µg/mL | – | – | – | –
3 | C=C[C@]1(C)C[C@@H](OC(=O)CSc2ncnc(OC)n2)[C@]2(C)[C@H](C)CC[C@]3(CCC(=O)[C@H]32)[C@@H](C)[C@@H]1O | ≥ 64 µg/mL | 0.25 µg/mL (≈ 0.496 µM) | 32 µg/mL (≈ 63.5 µM) | 0.125 µg/mL (≈ 0.248 µM) | 0.25 µg/mL (≈ 0.496 µM) | 0.125 µg/mL (≈ 0.248 µM) | ≥ 64 µg/mL | – | – | – | –
4 | C=C[C@]1(C)C[C@@H](OC(=O)CSc2ncnc(NCCNC)n2)[C@]2(C)[C@H](C)CC[C@]3(CCC(=O)[C@H]32)[C@@H](C)[C@@H]1O | ≥ 64 µg/mL | 0.25 µg/mL (≈ 0.458 µM) | 32 µg/mL (≈ 58.6 µM) | 0.013 µg/mL (≈ 0.0238 µM) | 0.25 µg/mL (≈ 0.458 µM) | 0.063 µg/mL (≈ 0.115 µM) | ≥ 64 µg/mL | – | – | – | –
5 | C=C[C@]1(C)C[C@@H](OC(=O)CSc2ncnc(NCCN3CCCC3)n2)[C@]2(C)[C@H](C)CC[C@]3(CCC(=O)[C@H]32)[C@@H](C)[C@@H]1O | ≥ 64 µg/mL | 0.125 µg/mL (≈ 0.213 µM) | 32 µg/mL (≈ 54.6 µM) | 0.125 µg/mL (≈ 0.213 µM) | 0.125 µg/mL (≈ 0.213 µM) | 0.063 µg/mL (≈ 0.108 µM) | ≥ 64 µg/mL | – | – | – | –
6 | C=C[C@]1(C)C[C@@H](OC(=O)CSc2ncnc(N(CC)CC)n2)[C@]2(C)[C@H](C)CC[C@]3(CCC(=O)[C@H]32)[C@@H](C)[C@@H]1O | ≥ 64 µg/mL | 0.25 µg/mL (≈ 0.459 µM) | ≥ 64 µg/mL | 0.25 µg/mL (≈ 0.459 µM) | 0.125 µg/mL (≈ 0.229 µM) | 0.125 µg/mL (≈ 0.229 µM) | ≥ 64 µg/mL | – | – | – | –
7 | C=C[C@]1(C)C[C@@H](OC(=O)CSc2ncnc(NCCNCC)n2)[C@]2(C)[C@H](C)CC[C@]3(CCC(=O)[C@H]32)[C@@H](C)[C@@H]1O | ≥ 64 µg/mL | 0.125 µg/mL (≈ 0.223 µM) | 32 µg/mL (≈ 57.2 µM) | 0.25 µg/mL (≈ 0.447 µM) | 0.25 µg/mL (≈ 0.447 µM) | 0.063 µg/mL (≈ 0.113 µM) | ≥ 64 µg/mL | – | – | – | –
8 | C=C[C@]1(C)C[C@@H](OC(=O)CSc2ncnc(NCCN(C)C)n2)[C@]2(C)[C@H](C)CC[C@]3(CCC(=O)[C@H]32)[C@@H](C)[C@@H]1O | ≥ 64 µg/mL | 0.063 µg/mL (≈ 0.113 µM) | 16 µg/mL (≈ 28.6 µM) | 0.063 µg/mL (≈ 0.113 µM) | 0.125 µg/mL (≈ 0.223 µM) | 0.031 µg/mL (≈ 0.0554 µM) | ≥ 64 µg/mL | Dose-Dependent Effect | Dose-Dependent Effect | 2.14 | 0.32
9 | C=C[C@]1(C)C[C@@H](OC(=O)CSc2ncnc(N3CCCC3)n2)[C@]2(C)[C@H](C)CC[C@]3(CCC(=O)[C@H]32)[C@@H](C)[C@@H]1O | ≥ 64 µg/mL | 0.125 µg/mL (≈ 0.23 µM) | 32 µg/mL (≈ 59 µM) | 0.25 µg/mL (≈ 0.461 µM) | 0.25 µg/mL (≈ 0.461 µM) | 0.125 µg/mL (≈ 0.23 µM) | ≥ 64 µg/mL | – | – | – | –
10 | C=C[C@]1(C)C[C@@H](OC(=O)CSc2ncnc(OCCCC)n2)[C@]2(C)[C@H](C)CC[C@]3(CCC(=O)[C@H]32)[C@@H](C)[C@@H]1O | ≥ 64 µg/mL | 0.5 µg/mL (≈ 0.916 µM) | ≥ 64 µg/mL | 4 µg/mL (≈ 7.33 µM) | 0.25 µg/mL (≈ 0.458 µM) | 0.125 µg/mL (≈ 0.229 µM) | ≥ 64 µg/mL | – | – | – | –
11 | C=C[C@]1(C)C[C@@H](OC(=O)CSc2ncnc(NCCN)n2)[C@]2(C)[C@H](C)CC[C@]3(CCC(=O)[C@H]32)[C@@H](C)[C@@H]1O | ≥ 64 µg/mL | 8 µg/mL (≈ 15 µM) | ≥ 64 µg/mL | 2 µg/mL (≈ 3.76 µM) | 8 µg/mL (≈ 15 µM) | 2 µg/mL (≈ 3.76 µM) | ≥ 64 µg/mL | – | – | – | –

Source: ChEMBL document CHEMBL5634148, “Synthesis and evaluation of novel pleuromutilin derivatives targeting the 50S ribosomal subunit for antibacterial ability” (Eur J Med Chem, 2023)
